Assay results taken from ChEMBL document CHEMBL1145681, “Inhibitory effect of dehydroevodiamine and evodiamine on nitric oxide production in cultured murine macrophages” (J Nat Prod, 1997).
Calls of active or inactive are those of the source. No cut-off for these calls is given here.

Columns and labels:
RAW264.7 [1] = test: Antiinflammatory activity in IFN-gamma/LPS-stimulated mouse RAW264.7 cells assessed as NO production at 100 uM treated after 3 hrs of IFN-gamma stimulation and before 30 mins of LPS addition measured after 19 hrs relative to control
RAW264.7 [2] = test: Antiinflammatory activity in IFN-gamma/LPS-stimulated mouse RAW264.7 cells assessed as inhibition of NO production at 10 uM treated after 18.5 hrs of LPS addition measured after 19 hrs relative to control; assay type: functional, cell-based
RAW264.7 [3] = test: Antiinflammatory activity in IFN-gamma/LPS-stimulated mouse RAW264.7 cells assessed as inhibition of NO production at 50 uM treated after 2 hrs of LPS addition measured after 19 hrs relative to control; values are per cent of control
RAW264.7 [4] = test: Antiinflammatory activity in IFN-gamma/LPS-stimulated mouse RAW264.7 cells assessed as inhibition of NO production at 50 uM treated before 30 mins of IFN-gamma stimulation in presence of LPS measured after 19 hrs relative to control; assay type: functional; conditions: values are per cent of control
RAW264.7 [5] = test: Antiinflammatory activity in IFN-gamma/LPS-stimulated mouse RAW264.7 cells assessed as inhibition of NO production at 10 uM treated after 2 hrs of LPS addition measured after 19 hrs relative to control; values are per cent of control
RAW264.7 [6] = test: Antiinflammatory activity in IFN-gamma/LPS-stimulated mouse RAW264.7 cells assessed as inhibition of NO production at 100 uM treated before 30 mins of IFN-gamma stimulation in presence of LPS measured after 19 hrs relative to control; assay type: functional; conditions: values are per cent of control
RAW264.7 [7] = test: Antiinflammatory activity in IFN-gamma/LPS-stimulated mouse RAW264.7 cells assessed as inhibition of NO production at 30 uM treated after 18.5 hrs of LPS addition measured after 19 hrs relative to control; assay type: functional, cell-based
RAW264.7 [8] = test: Antiinflammatory activity in IFN-gamma/LPS-stimulated mouse RAW264.7 cells assessed as inhibition of NO production at 10 uM treated before 30 mins of IFN-gamma stimulation in presence of LPS measured after 19 hrs relative to control; assay type: functional; conditions: values are per cent of control
RAW264.7 [9] = test: Antiinflammatory activity in IFN-gamma/LPS-stimulated mouse RAW264.7 cells assessed as inhibition of NO production at 50 uM treated after 18.5 hrs of LPS addition measured after 19 hrs relative to control; assay type: functional, cell-based
RAW264.7 [10] = test: Cytotoxicity against IFN-gamma/LPS-stimulated mouse RAW264.7 cells at 10 to 100 uM treated after 2 hrs of LPS addition measured after 19 hrs by MTT assay; assay type: cell-based; conditions: raw264.7, 19 h
RAW264.7 [11] = test: Antiinflammatory activity in IFN-gamma/LPS-stimulated mouse RAW264.7 cells assessed as NO production at 10 uM treated after 3 hrs of IFN-gamma stimulation and before 30 mins of LPS addition measured after 19 hrs relative to control
RAW264.7 [12] = test: Antiinflammatory activity in IFN-gamma/LPS-stimulated mouse RAW264.7 cells assessed as inhibition of NO production at 100 uM treated after 2 hrs of LPS addition measured after 19 hrs relative to control; values are per cent of control
RAW264.7 [13] = test: Antiinflammatory activity in IFN-gamma/LPS-stimulated mouse RAW264.7 cells assessed as NO production at 50 uM treated after 3 hrs of IFN-gamma stimulation and before 30 mins of LPS addition measured after 19 hrs relative to control
RAW264.7 [14] = test: Cytotoxicity against IFN-gamma/LPS-stimulated mouse RAW264.7 cells at 10 to 100 uM treated after 3 hrs of IFN-gamma stimulation and before 30 mins of LPS addition measured after 19 hrs by MTT assay; assay type: cell-based; conditions: raw264.7, 19 h
RAW264.7 [15] = test: Antiinflammatory activity in IFN-gamma/LPS-stimulated mouse RAW264.7 cells assessed as inhibition of NO production at 50 uM treated after 3 hrs of IFN-gamma stimulation and before 30 mins of LPS addition measured after 19 hrs relative to control; assay type: functional
RAW264.7 [16] = test: Antiinflammatory activity in IFN-gamma/LPS-stimulated mouse RAW264.7 cells assessed as inhibition of NO production at 100 uM treated after 3 hrs of IFN-gamma stimulation and before 30 mins of LPS addition measured after 19 hrs relative to control; assay type: functional
RAW264.7 [17] = test: Antiinflammatory activity in IFN-gamma/LPS-stimulated mouse RAW264.7 cells assessed as inhibition of NO production at 30 uM treated before 30 mins of IFN-gamma stimulation in presence of LPS measured after 19 hrs relative to control; assay type: functional
RAW264.7 [18] = test: Antiinflammatory activity in IFN-gamma/LPS-stimulated mouse RAW264.7 cells assessed as inhibition of NO production at 30 uM treated after 3 hrs of IFN-gamma stimulation and before 30 mins of LPS addition measured after 19 hrs relative to control; assay type: functional, cell-based
RAW264.7 [19] = test: Cytotoxicity against IFN-gamma/LPS-stimulated mouse RAW264.7 cells at 10 to 100 uM treated after 18.5 hrs of LPS addition measured after 19 hrs by MTT assay; assay type: cell-based; conditions: raw264.7, 19 h

Structure (SMILES) | level, % of control at 100 µM (RAW264.7 [1]) [%] | Activity (RAW264.7 [2]) | NO level, % of control (RAW264.7 [3]) [%] | response, % of control at 50 µM (RAW264.7 [4]) [%] | NO level, % of control (RAW264.7 [5]) [%] | response, % of control at 100 µM (RAW264.7 [6]) [%] | Activity (RAW264.7 [7]) | response, % of control at 10 µM (RAW264.7 [8]) [%] | Activity (RAW264.7 [9]) | Activity (RAW264.7 [10]) | level, % of control at 10 µM (RAW264.7 [11]) [%] | NO level, % of control (RAW264.7 [12]) [%] | level, % of control at 50 µM (RAW264.7 [13]) [%] | Activity (RAW264.7 [14]) | Activity (RAW264.7 [15]) | Activity (RAW264.7 [16]) | inhibition at 30 µM (RAW264.7 [17]) [%] | Activity (RAW264.7 [18]) | Activity (RAW264.7 [19])
C[n+]1c2n(c(=O)c3ccccc31)CCc1c-2[nH]c2ccccc12 [DEHYDROEVODIAMINE] | 23.2 | inactive | 77 | 74.2 | 84.3 | 44 | inactive | 80.6 | inactive | Non-toxic | 86.1 | 24.2 | 78.1 | Not Active |  |  |  |  | 
CN1c2ccccc2C(=O)N2CCc3c([nH]c4ccccc34)[C@@H]21 [EVODIAMINE] |  |  |  | 68.3 |  |  |  | 79.5 |  |  |  |  |  |  | inactive | inactive | 50.6 | inactive | 
CN1c2ccccc2C(=O)N2CCc3c([nH]c4ccccc34)[C@H]21 [EVODIAMINE] |  |  |  |  |  |  |  |  |  | Non-toxic |  |  |  | Not Active |  |  |  |  | Non-toxic
